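Briefly, cells in 96-well plates were exposed to five compound concentrations for 48 h, and endpoints were estimated by linear interpolation. Here, GI50 denotes the concentration required for 50% inhibition of growth. TGI is the concentration that stops growth completely.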
Tests used:
Experiment in all cases: NCI anticancer screen, dose series, 48 h
786-0 renal = system: 786-0 renal
IGROV1 ovarian = system: IGROV1 ovarian
NCI-H522 lung = system: NCI-H522 lung
SNB-19 CNS = system: SNB-19 CNS
HOP-92 NSCLC = system: HOP-92 NSCLC
SK-MEL-2 melanoma = system: SK-MEL-2 melanoma
MCF7 breast = system: MCF7 breast
TK-10 renal = system: TK-10 renal

Structure (SMILES) | GI50 (786-0 renal) [µM] | TGI (786-0 renal) [µM] | GI50 (IGROV1 ovarian) [µM] | TGI (IGROV1 ovarian) [µM] | GI50 (NCI-H522 lung) [µM] | TGI (NCI-H522 lung) [µM] | GI50 (SNB-19 CNS) [µM] | TGI (SNB-19 CNS) [µM] | GI50 (HOP-92 NSCLC) [µM] | TGI (HOP-92 NSCLC) [µM] | GI50 (SK-MEL-2 melanoma) [µM] | TGI (SK-MEL-2 melanoma) [µM] | GI50 (MCF7 breast) [µM] | TGI (MCF7 breast) [µM] | GI50 (TK-10 renal) [µM] | TGI (TK-10 renal) [µM]
COc1ccc(Nc2ncccc2/C=C/C(=O)c2cc(OC)c(OC)c(OC)c2)cc1 | 1.69 | 3.22 | 2 | 5.31 | 0.36 | 1.64 | 2.14 | 6.33 | 1.59 | 4.28 | 1.47 | 2.99 | 0.695 | 2.09 | – | –
Nc1ccc(-c2nc3ccccc3[nH]2)c(O)c1 | 47.4 | > 100 | > 100 | > 100 | > 100 | > 100 | 66.8 | > 100 | 5.82 | 45.2 | > 100 | > 100 | 30.3 | > 100 | 17.8 | 84
CC(=NCCN(CCN=C(C)c1c(O)cc(C)oc1=O)CCN=C(C)c1c(O)cc(C)oc1=O)c1c(O)cc(C)oc1=O | – | > 100 | – | > 100 | – | > 100 | – | > 100 | – | – | – | – | – | > 100 | – | > 100
C[N+](C)([O-])CCCNc1c2ccccc2nc2cccc([N+](=O)[O-])c12 | – | 0.872 | – | – | – | 0.67 | – | 3.2 | – | 0.806 | – | 0.421 | – | 0.623 | – | 8.19
Nc1c(C(=O)c2cccc(-c3ccc[n+]([O-])c3)c2)cnn1-c1ccc(F)cc1F | > 25 | > 25 | > 25 | > 25 | > 25 | > 25 | > 25 | > 25 | > 25 | > 25 | > 25 | > 25 | > 25 | > 25 | > 25 | > 25
O=C(Nc1ccc(Cl)cc1)c1cc2c(cc1O)[nH]c1ccccc12 | 2.76 | 7.54 | 4.31 | 18.7 | 2.88 | 10.6 | 3.43 | 30.6 | 3.18 | 12.5 | 2.47 | 6.98 | 2.56 | 10 | 2.54 | 6.56
COc1ccc(-c2nsc3c2NC(=O)CC3c2ccc3c(c2)OCO3)cc1 (stereo not given) | 3.24 | > 100 | 2.61 | > 100 | 0.464 | 3.57 | 48.7 | > 100 | – | – | – | – | 0.367 | > 100 | 8.25 | > 100
c1cc(C[S+]2CCCC2)ccc1C[S+]1CCCC1 | – | > 100 | – | > 100 | – | > 100 | – | > 100 | – | > 100 | – | – | – | > 100 | – | > 100
CC(=N\O)/C(C)=N/O.CC(=N\O)/C(C)=N/O.CC(=N\O)/C(C)=N/O.CC(=N\O)/C(C)=N/O.[Cu].[Cu] | 19.8 | 36.8 | 23.8 | 56.2 | 18.2 | 34.1 | 19.7 | 34.5 | 18.4 | 32.8 | 17.4 | 31.4 | 17.3 | 31.2 | 19.1 | 33.2
O=CN1N=C(c2ccc(Nc3ccnc4cc(Cl)ccc34)cc2)CC1c1ccccc1 (stereo not given) | 3.36 | 12.2 | 9.36 | > 100 | – | – | 5.13 | > 100 | 4.28 | > 100 | – | – | 3.42 | 26.7 | 9.51 | 38.5
O=C1c2ccccc2-c2nccc3cc(Cl)nc1c23 | 5.72 | > 100 | 0.586 | 1.91 | 0.458 | 1.61 | 20.7 | 74.8 | 1.56 | 5.64 | 2.83 | 7.28 | 1.3 | 2.72 | 4.33 | > 100
ON(CCc1ccncc1)Cc1ccccc1 | – | > 100 | – | > 100 | – | > 100 | – | > 100 | – | > 100 | – | – | – | > 100 | – | –
NC(=O)C(Br)CBr (stereo not given) | 5.65 | 16.1 | 1.59 | 4.78 | – | – | 15.5 | 29.6 | 1.39 | 3.1 | 2.26 | – | 2.18 | 11.5 | 2.24 | 6.33
COc1cc2c(cc1OCCCOC1=C=C=C(c3ccc4c(c3)c3cc(-c5ccc(OCCCOc6cc7c(cc6OC)C(=O)N6CCC[C@H]6C=N7)cc5)ccc3n4S(=O)(=O)c3ccc(C)cc3)C=C1)N=C[C@@H]1CCCN1C2=O | 1.38 | 4.12 | 1.8 | 8.69 | 3.53 | 39.6 | 3.5 | 38.7 | 0.79 | 3.37 | – | – | 1.23 | 11.3 | 1.27 | 5.05
O=Nc1c(-c2cccc([N+](=O)[O-])c2)nc2cnccn12 | – | 37.4 | – | 38.6 | – | 33.3 | – | > 100 | – | 38.4 | – | 68.1 | – | > 100 | – | 26.3
COC(=O)Nc1nc2ccc(Oc3ccc(NC(=O)Nc4cccc(Br)c4)cc3)cc2[nH]1 | 3.9 | > 24.1 | 3.69 | 11.8 | 0.351 | 2.7 | 8.31 | > 25 | 3.33 | 12.7 | – | – | 0.22 | 3.77 | 4.66 | 12
CN(C)c1ccc(C(=O)c2ccc(N(C)C)c(N)c2)cc1N | 9.74 | > 91.5 | 1.86 | > 42.5 | 0.346 | 4.61 | 16.7 | > 39.3 | 1.46 | > 70.4 | 4.3 | > 100 | 0.686 | > 59.9 | 14.5 | 98.6
CCN(CC)c1ccc(N=C2C=C(C(=O)Nc3ccc(S(C)(=O)=O)cc3)C(=O)c3ccccc32)c(C)c1 | > 100 | > 100 | – | – | 16.7 | > 100 | 4.39 | > 100 | > 100 | > 100 | – | – | > 100 | > 100 | > 100 | > 100

Structure (SMILES) | GI50 (786-0 renal) [µM] | TGI (786-0 renal) [µM] | GI50 (IGROV1 ovarian) [µM] | TGI (IGROV1 ovarian) [µM] | GI50 (NCI-H522 lung) [µM] | TGI (NCI-H522 lung) [µM] | GI50 (SNB-19 CNS) [µM] | TGI (SNB-19 CNS) [µM] | GI50 (HOP-92 NSCLC) [µM] | TGI (HOP-92 NSCLC) [µM] | GI50 (SK-MEL-2 melanoma) [µM] | TGI (SK-MEL-2 melanoma) [µM] | GI50 (MCF7 breast) [µM] | TGI (MCF7 breast) [µM] | GI50 (TK-10 renal) [µM] | TGI (TK-10 renal) [µM]
CNc1nc(C)c(-c2nc(Nc3cccc(S(N)(=O)=O)c3)ncc2F)s1 | 0.0248 | 3.42 | 0.0349 | 12.3 | 0.0449 | 0.137 | 0.0273 | 14.1 | – | – | 0.0358 | 0.0939 | 0.0255 | 4.64 | 0.0644 | 1.17
C[C@@H]1COCCN1c1nc(-c2cnc(N)cc2C(F)F)nc(N2[C@H](C)COC[C@@H]2C)n1 | 0.272 | 12.5 | 0.0845 | 1.77 | 0.267 | 12.8 | 0.405 | 14.4 | 0.09 | 1.14 | 0.382 | 7.62 | 0.115 | 11.4 | 0.209 | 4.51
CCON=C1C(C)(C)C(C)(C)C(C)(C)C1(C)C | – | > 100 | – | > 100 | – | > 100 | – | > 100 | – | > 100 | – | > 100 | – | > 100 | – | > 100
CCCCCCCCCCCCCCCC(=O)OCC1OC(n2cnc3c(=S)nc(N)[nH]c32)C(OC(=O)CCCCCCCCCCCCCCC)C1OC(=O)CCCCCCCCCCCCCCC (stereo not given) | 2.46 | > 50 | 22.7 | > 50 | 4.82 | > 47.4 | > 50 | > 50 | 3.85 | > 50 | 4.39 | 28.4 | 1.65 | > 26.1 | 1.99 | > 50
O=C(Nc1ncc(Cc2ccccc2)s1)c1ccc2c(c1)OCCCO2 | 2.44 | > 100 | 0.88 | > 100 | 1.03 | > 100 | 1 | > 100 | > 24 | > 100 | 1.36 | > 100 | 0.374 | > 100 | 6.17 | > 100
COc1ccc(Nc2ccnc(NCCNc3ccnc4cc(Cl)ccc34)n2)cc1 | 1.87 | 4.33 | 1.99 | 11 | 2.38 | 7.8 | 2.86 | 12 | 1 | 6.34 | 2.25 | 4.11 | 1.53 | 5.2 | 3.33 | 10.5
CO/C(=N\N=C\c1ccc(Cl)cc1Cl)c1ccncc1 | – | > 10 | – | – | – | > 10 | – | > 10 | – | > 10 | – | > 10 | – | > 10 | – | > 10
CN(C)/C=C/c1nnnn1-c1ccc(Cl)cc1 | 14.8 | 56.3 | 14 | > 100 | 25.2 | 64.8 | 29 | 92.9 | – | – | 13.2 | > 100 | 6.03 | 24.8 | 25.4 | 80.4
C=C1C(=O)O[C@H]2[C@H]1CC/C(CNS(=O)(=O)c1ccc3ccccc3c1)=C\CC[C@@]1(C)O[C@@H]21 | 1.62 | 3.22 | 2.87 | 8.2 | 0.444 | 1.8 | 12 | 26.7 | 1.89 | 6.34 | 2.13 | 5.45 | 0.943 | 2.62 | – | –
O=C1CSC2=NCC3(NN12)c1ccccc1-c1ccccc13 | – | > 10 | – | > 10 | – | > 10 | – | > 10 | – | > 10 | – | – | – | > 10 | – | > 10
COC(=O)c1ccccc1C#CCCCOS(C)(=O)=O | – | > 10 | – | > 10 | – | – | – | > 10 | – | – | – | > 10 | – | > 10 | – | > 10
CSc1ccc(-c2cc(-c3ccc(NC(=O)CCCN4CCCC4)cc3)nc(-c3ccc(NC(=O)CCCN4CCCC4)cc3)c2)cc1 | 6.88 | 23.9 | 10.3 | 33.8 | 1.91 | 3.59 | 4.92 | 23.8 | 1.72 | 5.61 | 4.58 | 19.2 | – | – | 4.56 | 17.5
COc1ccc(C(O)c2cc3c(N)c(C(=O)Nc4cccc(Cl)c4C)sc3nc2C)cc1 (stereo not given) | 0.786 | 1.53 | 0.687 | 1.44 | – | – | 0.943 | 1.92 | 0.618 | 1.68 | 0.909 | 1.84 | 0.569 | 1.24 | 0.871 | 1.8
C=C1C(=O)O[C@H]2[C@H]1CC/C(CNC(=O)/C=C/c1cccc(OC)c1)=C\CC[C@@]1(C)O[C@@H]21 | 1.54 | 3.58 | 1.96 | 5.3 | 0.435 | 1.77 | 3.22 | 13.5 | 1.03 | 3.38 | 1.47 | 3.31 | – | – | 1.15 | 2.5
CCOP(=O)(OCC)/C(=C\N1C(=O)CC(=O)NC1=S)C(=O)OC | – | > 100 | – | > 100 | – | – | – | > 100 | – | > 100 | – | > 100 | – | > 100 | – | > 100
N#Cc1c2ccccc2c2n1-c1ccccc1OC(c1ccccc1)C2=O (stereo not given) | 4.91 | 23 | 4.37 | 19.2 | 2.06 | 4.72 | 4.25 | > 100 | 2.01 | 5.88 | – | – | 3.8 | 14.6 | 4.9 | 20.7
Nc1ccc(N=Nc2ccccc2)c(N)n1 | 20.8 | 44.4 | 23.7 | 77.5 | 22.9 | 86.2 | 40.7 | > 100 | 14.8 | 65.9 | – | – | – | – | 41.2 | > 100

Reference: PubChem BioAssay (NCI)
